According to ChEMBL document CHEMBL1146877, “D609 blocks cell survival and induces apoptosis in neural stem cells” (Bioorg Med Chem Lett, 2006):
Activity calls are given as the source filed them. No cut-off for these calls is given here.

Key:
Assay type in all cases: functional, cell-based
Conditions in all cases: Rattus norvegicus
NSC [1] = assay: Induction of apoptosis in NSC cells by TUNEL assay
NSC [2] = assay: Induction of necrosis in NSC cells assessed as lactate dehydrogenase release at 56.29 uM within 72 hrs relative to control
NSC [3] = assay: Inhibition of reactive oxygen species accumulation in NSC cells relative to control
NSC [4] = assay: Decrease in viability of NSC cells at 37.53 uM for 48 hrs in presence of bFGF
NSC [5] = assay: Decrease in viability of NSC cells at 18.76 uM for 24 hrs in presence of bFGF
NSC [6] = assay: Decrease in viability of NSC cells at 56.29 uM for 72 hrs in presence of bFGF

S=C(S)OC1CC2CC1C1CCCC21 (stereo unspecified)
Activity (NSC [1]): Active
Activity (NSC [2]): inactive
Activity (NSC [3]): Active
Activity (NSC [4]): Active
Activity (NSC [5]): Active
Activity (NSC [6]): Active
